The values below come from patent US20110288052A1, “NOVEL COMPOUNDS, PHARMACEUTICAL COMPOSITIONS CONTAINING SAME, AND METHODS OF USE FOR SAME” (priority 2008, published 2011).

Assay [1] relates to MCF-7 human breast cancer cells (fatty acid synthesis pathway activity). Put plainly: [14C]acetate incorporation into total lipids. The assay is classed as cell-based. The note with it: MCF7, [14C]acetate incorporation into lipids. How it is done:
Measurement of [^14C]acetate Incorporation into Total Lipids and Determination of IC50 of Compounds. This assay measures the incorporation of [^14C]acetate into total lipids and is a measure of fatty acid synthesis pathway activity in vitro. It is utilized to measure inhibition of fatty acid synthesis in vitro.
MCF-7 human breast cancer cells cultured as above, are plated at 5×10^4 cells per well in 24-well plates. Following overnight incubation, the compounds to be tested, solubilized in DMSO, are added at 5, 10, and 20 μg/ml in triplicate, with lower concentrations tested if necessary. DMSO is added to triplicate wells for a vehicle control. C75 is run at 5 and 10 μg/ml in triplicate as positive controls. After 4 hours of incubation, 0.25 μCi of [^14C]acetate (10 μl volume) is added to each well.
After 2 hours of additional incubation, medium is aspirated from the wells and 800 μl of chloroform:methanol (2:1) and 700 μl of 4 mM MgCl2 is added to each well. Contents of each well are transferred to 1.5 Eppendorf tubes, and spun at full-speed for 2 minutes in a high-speed Eppendorf Microcentrifuge 5415D. After removal of the aqueous (upper) layer, an additional 700 μl of chloroform:methanol (2:1) and 500 μl of 4 mM MgCl2 are added to each tube and then centrifuged for 1 minutes as above. The aqueous layer is removed with a Pasteur pipette and discarded. An additional 400 μl of chloroform:methanol (2:1) and 200 μl of 4 mM MgCl2 are added to each tube, then centrifuged and aqueous layer is discarded. The lower (organic) phase is transferred into a scintillation vial and dried at 40° C. under N2 gas. Once dried, 3 ml of scintillant (APB #NBC5104) is added and vials are counted for ^14C. The Beckman Scintillation counter calculates the average cpm values for triplicates.
The IC50 for the compounds is defined as the concentration of drug leading to a 50% reduction in [^14C]acetate incorporation into lipids compared to controls. This is determined by plotting the average cpm for each inhibitor concentration tested, performing linear regression and computing the best-fit line, r^2 values, and 95% confidence intervals. The average cpm values are computed by the Beckman scintillation counter (Model LS6500) for each compound concentration. Computation of linear regression, best-fit line, r^2, and 95% confidence intervals are calculated using Prism Version 3.0 (Graph Pad Software).

In the next assay the test system is OVCAR3 cells. Put plainly: XTT cytotoxicity assay, OVCAR3 (OV). Format: cell-based. The conditions noted are these: Homo sapiens. As to the method:
XTT Cytotoxicity Assay The XTT assay is a non-radioactive alternative for the [^51Cr] release cytotoxicity assay. XTT is a tetrazolium salt that is reduced to a formazan dye only by metabolically active, viable cells. The reduction of XTT is measured spectrophotometrically as OD490-OD650. To measure the cytotoxicity of specific compounds against cancer cells, 9×10^3 MCF-7 human breast cancer cells (shown in the tables as “(M)”), obtained from the American Type Culture Collection are plated per well in 96 well plates in DMEM medium with 10% fetal bovine serum, insulin, penicillin, and streptomycin. Following overnight culture at 37° C. and 5% CO2, the compounds to be tested, dissolved in DMSO, are added to the wells in 1 μl volume at the following concentrations: 80, 40, 20, 10, 5, 2.5, 1.25, and 0.625 μg/ml in triplicate. Additional concentrations are tested if required. 1 μl of DMSO is added to triplicate wells are the vehicle control. C75 is run at 40, 20, […], and 5 μg/ml in triplicate as positive controls. After 72 hours of incubation, cells are incubated for 4 hours with the XTT reagent as per manufacturer's instructions (Cell Proliferation Kit II (XTT) Roche). Plates are read at OD490 and OD650 on a Molecular Devices SpectraMax Plus Spectrophotometer. Three wells containing the XTT reagent without cells serve as the plate blank. XTT data are reported as OD490-OD650. Averages and standard error of the mean are computed using SOFTmax Pro software (Molecular Dynamics). The IC50 for the compounds is defined as the concentration of drug leading to a 50% reduction in OD490-OD650 compared to controls. The OD490-OD650 are computed by the SOFTmax PRO software (Molecular Devices) for each compound concentration. IC50 is calculated by linear regression, plotting the FAS activity as percent of control versus drug concentrations. Linear regression, best-fit line, r^2, and 95% confidence intervals are determined using Prism Version 3.0 (Graph Pad Software). The test was also run against OVCAR3 cells (“OV”), and HCT116 cells (“H”).
In general terms: Tetrazolium assays rely on reduction of a dye to a coloured formazan, in cell work by metabolically active cells.

≈ marks a conversion by molar mass, not a printed value.

In the case of `CCCCCCCCC1(C)SC(=O)C=C1OCC(=O)Nc1ccc(-c2cccs2)cc1` (centres unmarked), the IC50 in assay [1] was 80.2 µg/mL (≈ 175 µM); in the assay on OVCAR3 cells (OVCAR-3) it was over 80 µg/mL.

In the assay on OVCAR3 cells (OVCAR-3), `CCCCCCCCC1(C)SC(=O)C=C1OCC(=O)Nc1ccc2c(c1)OCO2` (centres unmarked) showed an IC50 of 9.3 µg/mL (≈ 22.2 µM). On to `CCCCCCCCC1(C)SC(=O)C=C1OCC(=O)Nc1ccc(OC(F)(F)F)cc1` (centres unmarked), for which the results for the IC50 (in assay [1]; in the assay on OVCAR3 cells (OVCAR-3)) were 8.2 µg/mL (≈ 17.8 µM) and 3.3 µg/mL (≈ 7.18 µM), respectively. `CCCCCCCCC1(C)OC(=O)C=C1OCC(=O)Nc1ccc(Cl)cc1` (centres unmarked) showed an IC50 in the assay on OVCAR3 cells (OVCAR-3) of 9.2 µg/mL (≈ 23.4 µM).

Regarding `CCCCCCCCC1(C)SC(=O)C=C1OCC(=O)Nc1ccc(C(F)(F)F)cc1` (centres unmarked), the IC50 is under 2.5 µg/mL in assay [1] and 4 µg/mL (≈ 9.02 µM) in the assay on OVCAR3 cells (OVCAR-3).

For the compound `CCCCCCCCC1(C)SC(=O)C=C1OCC(=O)Nc1ccccc1SC` (centres unmarked), the IC50 in assay [1] was over 80 µg/mL; with OVCAR3 cells (OVCAR-3), 43.8 µg/mL (≈ 104 µM).

For the compound `CCCCCCCCC1(C)SC(=O)C=C1OCC(=O)Nc1cccc(OC(F)(F)F)c1` (centres unmarked), the IC50 worked out at 17.1 µg/mL (≈ 37.2 µM) in assay [1] and 11.6 µg/mL (≈ 25.2 µM) in the assay with OVCAR3 cells (OVCAR-3).

In the assay on OVCAR3 cells (OVCAR-3), `CCCCCCCCC1(C)SC(=O)C=C1OCC(=O)Nc1ccccc1` (centres unmarked) showed a half-inhibitory concentration (IC50) of 12.1 µg/mL (≈ 32.2 µM). Regarding `CCCCCCCCOc1ccc(NC(=O)COC2=CC(=O)SC2(C)CCCCCCCC)cc1` (centres unmarked), the IC50 in assay [1] is over 80 µg/mL; with OVCAR3 cells (OVCAR-3) it was 67 µg/mL (≈ 133 µM). With `CCCCCCCC[C@]1(C)SC(=O)C=C1OCC(=O)Nc1ccccc1OC(F)(F)F`, the IC50 (in assay [1]; with OVCAR3 cells (OVCAR-3)) was over 80 µg/mL throughout. Take `CCCCCCCCC1(C)SC(=O)C=C1OCC(=O)Nc1ccc(Oc2ccc(Cl)cc2)cc1` (centres unmarked): the concentration for half-maximal inhibition (IC50) in assay [1] is over 80 µg/mL; with OVCAR3 cells (OVCAR-3) it was 5 µg/mL (≈ 9.96 µM).

As for `CCCCCCCCC1(C)SC(=O)C=C1OCC(=O)Nc1ccc(Cl)cc1` (centres unmarked), the IC50 was 19.2 ± 2 µg/mL (≈ 46.8 µM) in assay [1] and 9.2 ± 5 µg/mL (≈ 22.4 µM) in the assay on OVCAR3 cells (OVCAR-3). In the assay with OVCAR3 cells (OVCAR-3), `CCCCCCCCC1(C)SC(=O)C=C1OCC(=O)Nc1ccc(Cl)cc1C(F)(F)F` (centres unmarked) yielded an IC50 of 24 µg/mL (≈ 50.2 µM). As for `CCCCCCCCC1(C)SC(=O)C=C1OCC(=O)Nc1cccc(C(F)(F)F)c1` (centres unmarked), the results for the IC50 (in assay [1]; in the assay with OVCAR3 cells (OVCAR-3)) were 12.3 µg/mL (≈ 27.7 µM) and 11 µg/mL (≈ 24.8 µM), respectively.

In the case of `CCCCCCCC[C@]1(C)SC(=O)C=C1OCC(=O)Nc1ccccc1C(F)(F)F`, the IC50 is over 80 µg/mL in assay [1] and 24.1 µg/mL (≈ 54.3 µM) with OVCAR3 cells (OVCAR-3). Take `CCCCCCCCC1(C)SC(=O)C=C1OCC(=O)Nc1ccc(Cl)cc1Cl` (centres unmarked): the 50% inhibitory concentration (IC50) in the assay on OVCAR3 cells (OVCAR-3, unit given as ml) came out at 64.5 µg/mL (≈ 145 µM). Regarding `CCCCCCCCC1(C)SC(=O)C=C1OCC(=O)Nc1ccccc1N1CCCCC1` (centres unmarked), in the assay on OVCAR3 cells (OVCAR-3), the IC50 was 15.5 µg/mL (≈ 33.8 µM). In the case of `CCCCCCCCC1(C)SC(=O)C=C1OCC(=O)Nc1ccc(SC)cc1` (centres unmarked), the IC50 in assay [1] was over 80 µg/mL; with OVCAR3 cells (OVCAR-3), 16.9 µg/mL (≈ 40.1 µM). The corresponding values for `CCCCCCCCC1(C)SC(=O)C=C1OCC(=O)Nc1ccc(OC)cc1` (centres unmarked) are 23 µg/mL (≈ 56.7 µM) and 17.8 µg/mL (≈ 43.9 µM).

A word on the IC50: it is the concentration at which inhibition is half-maximal.
